Measurements from US20240368667A1, “RAPID, LABEL-FREE ANTIBIOTIC SUSCEPTIBILITY OF BACTERIA DIRECTLY FROM POSITIVE BLOOD OR BODILY FLUID/CULTURE” (priority 2021, published 2024).
Converted amounts (≈) assume the structure as drawn.

Key:
[1] = test system: E. coli; assay: Direct flow cytometric AST (high-throughput flow cytometry, HTFC) of sucrose-recovered bacteria; assay type: cell-based, Escherichia coli; set-up: key to susceptibility classification, HTFC: (S) sensitive; (I) intermediate; (R) resistant; conditions: for susceptibility classification, HTFC / MIC: sucrose-recovered, antibiotic 4 hours (37° C.); for MIC: Escherichia coli, 4 h, read-out: Minimum inhibitory concentration, HTFC
Method: (§1) AST workflow using bacteria recovered directly from positive blood culture. A 1-mL aliquot of bacteria recovered using separation method 2 was diluted 10-fold in CAMHB, the OD600 adjusted to ˜0.01, and a 50 μL aliquot distributed into each well of a 96-well plate containing CAMHB with and without ceftazidime, tobramycin, and either meropenem (E. coli and P. aeruginosa) or oxacillin (S. aureus). Following Clinical and Laboratory Standards Institute (CLSI) guidelines^33, 2% sodium chloride (NaCl) was present in wells containing oxacillin to assist in the detection of methicillin-resistant S. aureus (MRSA). […] To account for observed differences in doubling and lag times, E. coli and P. aeruginosa were incubated for 4 hours at 37° C., while S. aureus was incubated for 9 hours at 35° C. After incubation, antibiotic plates were removed from the incubator and directly stored on ice (i.e. no post-processing) until high-throughput flow cytometry (BD LSRFortessa with HTS-system, BD, Franklin Lakes, NJ). No-antibiotic controls and antibiotic-treated samples were handled identically.
(§2) MIC Determination by flow cytometry. Because antibiotic effects are observed in both the position of scatter signatures (morphology changes) and count rates (growth inhibition), a modified count rate, accounting for scatter position, was used to evaluate susceptibility. Briefly, no-antibiotic control populations (triplicate) were pooled, binned, and a convex hull boundary set at 1-standard deviation above the background (not including bins with zero counts) was drawn. […] The overlap ratio, measuring changes in morphology, was then computed by dividing the number of sample events within the no-antibiotic control boundary by the total number of events within the sample. As an increase in count rate attributed to viable bacteria in antibiotic-treated samples is not scientifically meaningful, the fractional overlap was multiplied by the minimum of the control and sample count rates to generate a modified count rate accounting for antibiotic-induced morphological changes. All modified count rates were normalized by the average of the no-antibiotic controls. For automatic MIC determination, normalized count rates corresponding to n (index of predicted MIC), n+1, n+2 were iteratively fit to a linear function with a frameshift of n+1 between iterations (FIGS. 8 and 9). […] A threshold of −0.01 instead of zero was used to mitigate the influence of small fluctuations in normalized count rates on susceptibility determinations.

[2] = test system: P. aeruginosa; assay: as above; assay type: cell-based, Pseudomonas aeruginosa; set-up: key to susceptibility classification, HTFC: (S) sensitive; (I) intermediate; (R) resistant; conditions: for MIC: Pseudomonas aeruginosa, read-out: Minimum inhibitory concentration, HTFC
Method: as §1, §2

[3] = test system: E. coli; assay: Broth microdilution (BMD) MIC; assay type: cell-based, Escherichia coli; set-up: key to susceptibility classification, BMD: (S) sensitive; (I) intermediate; (R) resistant; conditions: for MIC: Escherichia coli
Method: (§3) Microbroth dilution for minimum inhibitory concentrations (MIC) with and without sucrose recovery. To isolate bacteria without sucrose, culture media from positive BacT/alert FA PLUS aerobic culture bottles (bioMérieux, Durham, NC) was serially diluted and plated onto LB agar (Lennox; Sigma-Aldrich, St. Louis, MO). Bacterial suspensions were prepared by resuspending colonies in CAMHB with incubation on a MaxQ 4000 incubator shaker (Thermo Fisher Scientific, Waltham, MA) at 37° C. and ˜225 rpm for 3 hours. Bacteria recovered via Method 2 were diluted 10-fold in CAMHB. Following incubation or sucrose recovery and dilution, bacterial suspensions were adjusted to ˜0.004 OD600 with CAMHB and a 50-μL aliquot distributed to each well of a 96-well plate containing CAMHB with and without clinically relevant antibiotics (2-fold dilution series). Gram-negative plates included: ceftazidime (3rd generation cephalosporin, RPI corp., Mount Prospect, IL), cefepime (4th generation cephalosporin, Chem-Impex Int'l, Wood Dale, IL), meropenem (carbapenem, Tokyo Chemical Industry, Tokyo, Japan), levofloxacin (quinolone, Alfa Aesar, Haverhill, MA), and tobramycin (aminoglycoside, MP Biomedicals LLC, Santa Ana, CA), while S. aureus plates contained: oxacillin (beta-lactam, Sigma-Aldrich, St. Louis, MO), vancomycin (glycopeptide, Santa Cruz Biotechnology, Dallas, TX), erythromycin (macrolide, Sigma-Aldrich, St. Louis, MO), clindamycin ([…]), and ciprofloxacin (fluoroquinolone, Sigma-Aldrich, St. Louis, MO). Antibiotic plates were incubated at 37° C. for 16-20 hours (gram-negative) or 35° C. for 24 hours (S. aureus), at which time, plates were removed from the incubator and visually inspected for bacterial growth. The MIC was set at the lowest antibiotic concentration at which no growth was detected.

[4] = test system: P. aeruginosa; assay: Broth microdilution (BMD) MIC; assay type: cell-based, Pseudomonas aeruginosa; set-up: key to susceptibility classification, BMD: (S) sensitive; (I) intermediate; (R) resistant; conditions: broth microdilution; for MIC: Pseudomonas aeruginosa, read-out: Minimum inhibitory concentration, BMD
Method: as §3

MIC ([3]; E. coli Blood Culture A, broth microdilution, read-out: Minimum inhibitory concentration, BMD): 1 µg/mL (≈ 2.14 µM)
MIC ([3]; E. coli Blood Culture B, broth microdilution, read-out: Minimum inhibitory concentration, BMD): 8 µg/mL (≈ 17.1 µM)
MIC ([3]; E. coli EC37, broth microdilution, read-out: Minimum inhibitory concentration, BMD): 0.25 µg/mL (≈ 0.535 µM)
MIC ([3]; E. coli EC-bank, broth microdilution, read-out: Minimum inhibitory concentration, BMD): 0.5 µg/mL (≈ 1.07 µM)
MIC ([3]; E. coli Mu76, broth microdilution, read-out: Minimum inhibitory concentration, BMD): 0.5 µg/mL (≈ 1.07 µM)
MIC ([3]; E. coli Mu218, broth microdilution, read-out: Minimum inhibitory concentration, BMD): 32 µg/mL (≈ 68.4 µM)
MIC ([3]; E. coli Mu890, broth microdilution, read-out: Minimum inhibitory concentration, BMD): 0.5 µg/mL (≈ 1.07 µM)
MIC ([3]; E. coli, strain not named (FIG. 14), read-out: MIC as determined by BMD): 0.25 µg/mL (≈ 0.535 µM)
MIC ([4]; P. aeruginosa Blood Culture B): 2 µg/mL (≈ 4.28 µM)
MIC ([4]; P. aeruginosa Blood Culture C): ≤ 0.125 µg/mL
MIC ([4]; P. aeruginosa PA7): > 64 µg/mL
MIC ([4]; P. aeruginosa PA46): 0.5 µg/mL (≈ 1.07 µM)
MIC ([4]; P. aeruginosa PA49): 0.5 µg/mL (≈ 1.07 µM)
MIC ([4]; P. aeruginosa PA81): 0.5 µg/mL (≈ 1.07 µM)
MIC ([4]; PAO1, P. aeruginosa PAO1): 0.5 µg/mL (≈ 1.07 µM)
SMILES: NC[C@H]1O[C@H](O[C@H]2[C@H](O)[C@@H](O[C@H]3O[C@H](CO)[C@@H](O)[C@H](N)[C@H]3O)[C@H](N)C[C@@H]2N)[C@H](N)C[C@@H]1O [Tobramycin, tobramycin]
susceptibility classification, HTFC ([1]; E. coli Blood Culture A): (S)
susceptibility classification, HTFC ([1]; E. coli Blood Culture B): (S)
susceptibility classification, HTFC ([1]; E. coli EC37): (S)
susceptibility classification, HTFC ([1]; E. coli EC-bank): (S)
susceptibility classification, HTFC ([1]; E. coli Mu76): (S)
susceptibility classification, HTFC ([1]; E. coli Mu218): (R)
susceptibility classification, HTFC ([1]; E. coli Mu890): (S)
flow cytometric count rate ([1]; E. coli, strain not named (FIG. 14), concentrations ≥0.25 μg/mL, no-antibiotic control ~11,000 evts/s): ≥ 100 evts/s
MIC ([1]; E. coli Blood Culture A): 0.25 µg/mL (≈ 0.535 µM)
MIC ([1]; E. coli Blood Culture B): 4 µg/mL (≈ 8.56 µM)
MIC ([1]; E. coli EC37): 0.25 µg/mL (≈ 0.535 µM)
MIC ([1]; E. coli EC-bank): ≤ 0.125 µg/mL
MIC ([1]; E. coli Mu76): 0.5 µg/mL (≈ 1.07 µM)
MIC ([1]; E. coli Mu218): 16 µg/mL (≈ 34.2 µM)
MIC ([1]; E. coli Mu890): 0.5 µg/mL (≈ 1.07 µM)
susceptibility classification, HTFC ([2]; P. aeruginosa Blood Culture B, antibiotic 4 hours (37° C.)): (S)
susceptibility classification, HTFC ([2]; P. aeruginosa Blood Culture C, antibiotic 4 hours (37° C.)): S
susceptibility classification, HTFC ([2]; P. aeruginosa PA7, antibiotic 4 hours (37° C.)): (R)
susceptibility classification, HTFC ([2]; P. aeruginosa PA46, antibiotic 4 hours (37° C.)): (S)
susceptibility classification, HTFC ([2]; P. aeruginosa PA49, antibiotic 4 hours (37° C.)): (S)
susceptibility classification, HTFC ([2]; P. aeruginosa PA81, antibiotic 4 hours (37° C.)): (S)
susceptibility classification, HTFC ([2]; P. aeruginosa PAO1, antibiotic 4 hours (37° C.)): (S)
MIC ([2]; 4 h, P. aeruginosa Blood Culture B, antibiotic 4 hours (37° C.)): 0.25 µg/mL (≈ 0.535 µM)
MIC ([2]; 4 h, P. aeruginosa PA7, antibiotic 4 hours (37° C.)): > 16 µg/mL
MIC ([2]; 4 h, P. aeruginosa PA46, antibiotic 4 hours (37° C.)): 1 µg/mL (≈ 2.14 µM)
MIC ([2]; 4 h, P. aeruginosa PA49, antibiotic 4 hours (37° C.)): 1 µg/mL (≈ 2.14 µM)
MIC ([2]; 4 h, P. aeruginosa PA81, antibiotic 4 hours (37° C.)): 1 µg/mL (≈ 2.14 µM)
MIC ([2]; PAO1, 4 h, P. aeruginosa PAO1, antibiotic 4 hours (37° C.)): 2 µg/mL (≈ 4.28 µM)
susceptibility classification, BMD ([3]; E. coli Blood Culture A, broth microdilution): (S)
susceptibility classification, BMD ([3]; E. coli Blood Culture B, broth microdilution): (I)
susceptibility classification, BMD ([3]; E. coli EC37, broth microdilution): (S)
susceptibility classification, BMD ([3]; E. coli EC-bank, broth microdilution): (S)
susceptibility classification, BMD ([3]; E. coli Mu76, broth microdilution): (S)
susceptibility classification, BMD ([3]; E. coli Mu218, broth microdilution): (R)
susceptibility classification, BMD ([3]; E. coli Mu890, broth microdilution): (S)
susceptibility classification, BMD ([4]; P. aeruginosa Blood Culture B): (S)
susceptibility classification, BMD ([4]; P. aeruginosa Blood Culture C): (S)
susceptibility classification, BMD ([4]; P. aeruginosa PA7): (R)
susceptibility classification, BMD ([4]; P. aeruginosa PA46): (S)
susceptibility classification, BMD ([4]; P. aeruginosa PA49): (S)
susceptibility classification, BMD ([4]; P. aeruginosa PA81): (S)
susceptibility classification, BMD ([4]; P. aeruginosa PAO1): (S)
